Experimental data published in patent publication US12139475B2, “2-oxindole compounds” (CHEMOCENTRYX, INC., priority 2016, dated 2024).

The compounds below were run against T1, CCR(9) (Homo sapiens, UniProt P51686) (assay: Serum chemotaxis assay (MOLT-4 cells, TECK-induced migration, ChemoTX)). Details: MOLT-4 cells in human serum, migration to recombinant human TECK, 90 minutes at 37° C.
T1 construct: MOLT-4 cells were collected by centrifugation at 400×g at room temperature, then suspended at 50 million/ml in human serum; host or cells: MOLT-4
T1 sequence (P51686 1-369): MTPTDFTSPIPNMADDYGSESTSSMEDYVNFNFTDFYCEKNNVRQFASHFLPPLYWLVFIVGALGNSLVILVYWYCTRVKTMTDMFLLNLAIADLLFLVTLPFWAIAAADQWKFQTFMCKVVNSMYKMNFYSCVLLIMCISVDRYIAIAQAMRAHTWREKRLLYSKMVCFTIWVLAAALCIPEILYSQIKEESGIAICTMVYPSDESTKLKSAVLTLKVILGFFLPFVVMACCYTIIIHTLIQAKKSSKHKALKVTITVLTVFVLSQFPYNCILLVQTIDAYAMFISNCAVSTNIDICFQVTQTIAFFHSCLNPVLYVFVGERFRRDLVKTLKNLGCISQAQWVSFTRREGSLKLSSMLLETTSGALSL
Format: cell-based
Protocol: MOLT-4 cells were obtained from the American Type Culture Collection (Manassas, VA) and cultured in RPMI tissue culture medium supplemented with 10% fetal calf serum (FCS) in a humidified 5% CO2 incubator at 37° C. Recombinant human chemokine proteins TECK was obtained from R&D Systems (Minneapolis, MN). ChemoTX™ chemotaxis microchambers were purchased from Neuro Probe (Gaithersburg, MD). CyQUANT™ cell proliferation kits were purchased from Molecular Probes (Eugene, Oregon). Calcium indicator dye Fluo-4 AM was purchased from Molecular Devices (Mountain View, CA).
A serum chemotaxis assay was used to determine the efficacy of potential receptor antagonists at blocking the migration mediated through chemokine receptors, such as CCR(9). This assay was performed using the ChemoTX® microchamber system with a 5-μm pore-sized polycarbonate membrane. MOLT-4 cells were collected by centrifugation at 400×g at room temperature, then suspended at 50 million/ml in human serum, containing 50 mM HEPES (final pH of 7.2). The compound being tested or an equivalent volume of its solvent (DMSO) was then added to the cell/serum mixture at a final DMSO concentration of 0.125% (v/v), and this mixture was then incubated together at 37° C. for one hour. Separately, recombinant human TECK was diluted with chemotaxis buffer (HBSS+0.1% BSA), generally spanning a range from 0.1 nM to 500 nM, after which 29 μl of diluted chemokine was placed in the lower wells of the ChemoTX® plate. The 5-μm (pore size) polycarbonate membrane was placed onto the plate, and 20 μL of the cell/compound mixture was transferred onto each well of the membrane. The plates were incubated at 37° C. for 90 minutes, after which the polycarbonate membranes were removed and 5 μl of the DNA-intercalating agent CyQUANT (Invitrogen, Carlsbad, CA) was added to the lower wells. The amount of fluorescence, corresponding to the number of migrated cells, was measured using a Spectrafluor Plus plate reader (TECAN, San Jose, CA).
The A2 values were calculated from the following equation, comparing the efficacy of the test compound with that of the DMSO-only control at equi-active chemokine levels: Log(A2)=log[drug(M)]−log[(A′/A)−1] where A reflects the potency of the agonist in the absence of antagonist and A′ reflects the potency of the agonist in the presence of antagonist at a given concentration of drug ([drug(M)]). In Vivo Efficacy Models for Human IBD

Compound | Chemotaxis A2
CC(C)(C)c1ccc(C2(C)C(=O)N(c3ccc(C(=O)O)c(F)c3)c3ccc(Cl)cc32)cc1 (centres unmarked) | ++ (500 nM > A2 ≥ 100 nM)
CC(C)(C)c1ccc(C2(C)C(=O)N(c3cccc(C(=O)O)c3)c3cc(Cl)ccc32)cc1F (centres unmarked) | + (20000 nM ≥ A2 ≥ 500 nM)
CC(C)(C)c1ccc(C2(C)C(=O)N(c3ccccc3C(=O)O)c3ccc(Cl)cc32)cc1 (centres unmarked) | ++ (500 nM > A2 ≥ 100 nM)
CC1(c2ccc(Cl)cc2)C(=O)N(c2cccc(C(=O)O)c2)c2ccc(Cl)cc21 (centres unmarked) | + (20000 nM ≥ A2 ≥ 500 nM)
Cc1ccc2c(c1)C(C)(c1ccc(C(C)(C)C)c(F)c1)C(=O)N2c1cccc(C(=O)O)c1 (centres unmarked) | +++ (100 nM > A2)
Cc1cc(C2(C)C(=O)N(c3cccc(C(=O)O)c3)c3ccc(Cl)cc32)ccc1OC(C)C (centres unmarked) | ++ (500 nM > A2 ≥ 100 nM)
Cc1ccc2c(c1)N(c1ccc(C(=O)O)cc1)C(=O)C2(C)c1ccc(C(C)(C)C)cc1 (centres unmarked) | ++ (500 nM > A2 ≥ 100 nM)
CC(C)(C)c1ccc(C2(C)C(=O)N(c3cccc(C(=O)O)c3F)c3ccc(Cl)cc32)cc1 (centres unmarked) | +++ (100 nM > A2)
CC(C)(C)c1ccc(C2(C)C(=O)N(c3cccc(C(=O)O)c3)c3ccc(Cl)cc32)cc1F (centres unmarked) | +++ (100 nM > A2)
CC(C)(C)c1ccc(C2(C)C(=O)N(c3cccc(C(=O)O)c3)c3ccc(Cl)cc32)cc1 (stereo in doubt) [3-[(3R)-3-(4-tert-butylphenyl)-5-chloro-3-methyl-2-oxo-indolin-1-yl]benzoic acid] | +++ (100 nM > A2)
CC(C)(C)c1ccc(C2(C)C(=O)N(c3cccc(C(=O)O)c3)c3cc(Cl)ccc32)cc1 (centres unmarked) | ++ (500 nM > A2 ≥ 100 nM)
Cc1ccc2c(c1)N(c1cccc(C(=O)O)c1)C(=O)C2(C)c1ccc(C(C)(C)C)cc1 (centres unmarked) | ++ (500 nM > A2 ≥ 100 nM)
CC1(c2ccc(C3(C#N)CC3)cc2)C(=O)N(c2cccc(C(=O)O)c2)c2ccc(Cl)cc21 (centres unmarked) | ++ (500 nM > A2 ≥ 100 nM)
CC1(c2ccc(C(C)(C)C(C)(F)F)cc2)C(=O)N(c2cccc(C(=O)O)c2)c2ccc(Cl)cc21 (centres unmarked) | + (20000 nM ≥ A2 ≥ 500 nM)
CC1(c2ccc(C(C)(O)C(F)(F)F)cc2)C(=O)N(c2cccc(C(=O)O)c2)c2ccc(Cl)cc21 (centres unmarked) | ++ (500 nM > A2 ≥ 100 nM)
Cc1ccc2c(c1)N(c1cccc(C(=O)O)c1)C(=O)C2(C)c1ccc(C(C)(C)C)c(F)c1 (centres unmarked) | ++ (500 nM > A2 ≥ 100 nM)
CC(C)(C)c1ccc(C2(C)C(=O)N(c3ccc(C(=O)O)cc3)c3ccc(Cl)cc32)cc1 (centres unmarked) | +++ (100 nM > A2)
Cc1cc(C(C)(C)C)ccc1C1(C)C(=O)N(c2cccc(C(=O)O)c2)c2ccc(Cl)cc21 (centres unmarked) | +++ (100 nM > A2)
Cc1cc(C2(C)C(=O)N(c3cccc(C(=O)O)c3)c3ccc(Cl)cc32)ccc1C(C)(C)C (centres unmarked) | ++ (500 nM > A2 ≥ 100 nM)
CC(C)(O)c1ccc(C2(C)C(=O)N(c3cccc(C(=O)O)c3)c3ccc(Cl)cc32)cc1 (centres unmarked) | ++ (500 nM > A2 ≥ 100 nM)
Cc1cc(C(C)(C)C)ccc1C1(C)C(=O)N(c2ccc(C(=O)O)cc2)c2ccc(Cl)cc21 (centres unmarked) | ++ (500 nM > A2 ≥ 100 nM)

Continued, values first:

Chemotaxis A2 | Compound
+++ (100 nM > A2) | CC1(C)CCc2cc([C@]3(C)C(=O)N(c4cccc(C(C)(C)C(=O)O)c4)c4ccc(Cl)cc43)ccc2O1
+++ (100 nM > A2) | CC1(C)CCc2cc(C3(C)C(=O)N(c4cccc(C(=O)O)c4)c4cc(Cl)c(OC(F)(F)F)cc43)ccc2O1 (centres unmarked)
+++ (100 nM > A2) | Cc1cccc(CN2C(=O)[C@@](C)(c3ccc4c(c3)CCC(C)(C)O4)c3cc(Cl)ccc32)c1C(=O)O
+++ (100 nM > A2) | Cc1ccc(C(=O)O)c(CN2C(=O)[C@@](C)(c3ccc4c(c3)CCC(C)(C)O4)c3cc(Cl)ccc32)c1
+ (20000 nM ≥ A2 ≥ 500 nM) | COc1ccc(C2(C)C(=O)N(c3cccc(C(=O)O)c3)c3ccc(Cl)cc32)cc1F (centres unmarked)
+++ (100 nM > A2) | COc1cc(C(=O)O)cc(N2C(=O)[C@@](C)(c3ccc4c(c3)CCC(C)(C)O4)c3cc(Cl)ccc32)c1
+++ (100 nM > A2) | COc1c(C)cc(N2C(=O)[C@@](C)(c3ccc4c(c3)CCC(C)(C)O4)c3cc(Cl)ccc32)cc1C(=O)O
+++ (100 nM > A2) | Cc1ccc(CN2C(=O)[C@@](C)(c3ccc4c(c3)CCC(C)(C)O4)c3cc(Cl)ccc32)cc1C(=O)O
+++ (100 nM > A2) | CC1(C)CCc2cc([C@]3(C)C(=O)N(Cc4ccc(Cl)cc4C(=O)O)c4ccc(Cl)cc43)ccc2O1
++ (500 nM > A2 ≥ 100 nM) | CC1(C)CCc2cc(C3(C)C(=O)N(c4cccc(C(=O)O)c4)c4cc(Cl)ccc43)ccc2O1 (centres unmarked)
+++ (100 nM > A2) | COc1ccc(C(=O)O)c(CN2C(=O)[C@@](C)(c3ccc4c(c3)CCC(C)(C)O4)c3cc(Cl)ccc32)c1
+++ (100 nM > A2) | Cc1ccc2c(c1)C(C)(c1ccc3c(c1)CCC(C)(C)O3)C(=O)N2c1ccc(C)c(C(=O)O)c1 (stereo in doubt) [5-[(3R)-3-(2,2-dimethylchroman-6-yl)-3,5-dimethyl-2-oxo-indolin-1-yl]-2-methyl-benzoic acid]
+++ (100 nM > A2) | CC(C)(C)c1ccc(C2(C)C(=O)N(c3cccc(C(=O)O)c3)c3ccc(OC(F)(F)F)cc32)cc1 (centres unmarked)
+++ (100 nM > A2) | Cc1cc(N2C(=O)[C@@](C)(c3ccc4c(c3)CCC(C)(C)O4)c3cc(Cl)ccc32)ccc1C(=O)O
+++ (100 nM > A2) | CC(c1cccc(C(=O)O)c1)N1C(=O)[C@@](C)(c2ccc3c(c2)CCC(C)(C)O3)c2cc(Cl)ccc21 (some centres unmarked)
+++ (100 nM > A2) | Cc1c(CN2C(=O)[C@@](C)(c3ccc4c(c3)CCC(C)(C)O4)c3cc(Cl)ccc32)cccc1C(=O)O
+++ (100 nM > A2) | Cc1ccc(CN2C(=O)[C@@](C)(c3ccc4c(c3)CCC(C)(C)O4)c3cc(Cl)ccc32)c(C(=O)O)c1
++ (500 nM > A2 ≥ 100 nM) | CC1(C)CCc2cc([C@]3(C)C(=O)N(c4cc(C#N)cc(C(=O)O)c4)c4ccc(Cl)cc43)ccc2O1
+++ (100 nM > A2) | Cc1cc(C(=O)O)cc(N2C(=O)[C@@](C)(c3ccc4c(c3)CCC(C)(C)O4)c3cc(Cl)ccc32)c1
+++ (100 nM > A2) | CC1(C)CCc2cc([C@]3(C)C(=O)N(c4ccc(OC(F)(F)F)c(C(=O)O)c4)c4ccc(Cl)cc43)ccc2O1
+++ (100 nM > A2) | COc1ccc(N2C(=O)C(C)(c3ccc4c(c3)CCC(C)(C)O4)c3cc(Cl)ccc32)cc1C(=O)O (stereo in doubt) [5-[(3R)-5-chloro-3-(2,2-dimethylchroman-6-yl)-3-methyl-2-oxo-indolin-1-yl]-2-methoxy-benzoic acid]
+++ (100 nM > A2) | CC1(C)CCc2cc(C3(C)C(=O)N(c4ccc(CC(=O)O)cc4)c4ccc(Cl)cc43)ccc2O1 (stereo in doubt) [2-[4-[(3R)-5-chloro-3-(2,2-dimethylchroman-6-yl)-3-methyl-2-oxo-indolin-1-yl]phenyl]acetic acid]
+++ (100 nM > A2) | CC1(C)CCc2cc(C3(C)C(=O)N(c4cccc(C(=O)O)c4)c4ccc(Cl)cc43)ccc2O1 (stereo in doubt) [3-[(3R)-5-chloro-3-(2,2-dimethylchroman-6-yl)-3-methyl-2-oxo-indolin-1-yl]benzoic acid]
+++ (100 nM > A2) | CC1(C)CCc2cc([C@]3(C)C(=O)N(c4ccc(C(=O)O)c(Cl)c4)c4ccc(Cl)cc43)ccc2O1
+++ (100 nM > A2) | CC1(C)CCc2cc([C@]3(C)C(=O)N(c4ccc(CCC(=O)O)cc4)c4ccc(Cl)cc43)ccc2O1
+++ (100 nM > A2) | CC1(C)CCc2cc([C@]3(C)C(=O)N(Cc4cccc(C(=O)O)c4)c4ccc(Cl)cc43)ccc2O1
+++ (100 nM > A2) | COc1ccc(CN2C(=O)[C@@](C)(c3ccc4c(c3)CCC(C)(C)O4)c3cc(Cl)ccc32)c(C(=O)O)c1
+++ (100 nM > A2) | CC1(C)CCc2cc([C@]3(C)C(=O)N(c4ccccc4CC(=O)O)c4ccc(Cl)cc43)ccc2O1
+++ (100 nM > A2) | CC1(C)CCc2cc([C@]3(C)C(=O)N(c4ccc(C(=O)O)cc4)c4ccc(Cl)cc43)ccc2O1
